Results taken from PMC5218480 (PLoS ONE, 2017).

Test system: MV-4-11 cells
Test: Gene expression microarray analysis (Affymetrix PrimeView) and GSEA
Format: cell-based, human
Design: RFU PODN (11730768_x_at) / Fold change /veh PODN (11730768_x_at) / RFU LINC00158 (11744669_a_at) / Fold change /veh LINC00158 (11744669_a_at) / RFU DUSP10 (11751237_a_at) / Fold change /veh DUSP10 (11751237_a_at) / RFU ID3 (11757404_x_at) / Fold change /veh ID3 (11757404_x_at) / RFU PLEKHG5 (11737974_s_at) / Fold change /veh PLEKHG5 (11737974_s_at) / RFU LRRC4B (11730491_at) / Fold change /veh LRRC4B (11730491_at) / RFU GIMAP4 (11747438_a_at) / Fold change /veh GIMAP4 (11747438_a_at) / RFU KRT8 (11758183_x_at) / Fold change /veh KRT8 (11758183_x_at) / RFU CNN1 (11734310_a_at) / Fold change /veh CNN1 (11734310_a_at) / RFU VPS37D (11726825_at) / Fold change /veh VPS37D (11726825_at) / RFU C10orf10 (11716522_x_at) / Fold change /veh C10orf10 (11716522_x_at) / RFU KIR2DL2 /// KIR2DL4 /// KIR2DL5A /// KIR2DL5B /// KIR2DS1 /// KIR2DS2 /// KIR2DS3 /// KIR2DS4 /// KIR3DL3 /// KIR3DL3 /// KIR3DS1 (11738374_at) / Fold change /veh KIR2DL2 /// KIR2DL4 /// KIR2DL5A /// KIR2DL5B /// KIR2DS1 /// KIR2DS2 /// KIR2DS3 /// KIR2DS4 /// KIR3DL3 /// KIR3DL3 /// KIR3DS1 (11738374_at) / RFU C1QL1 (11718748_at) / Fold change /veh C1QL1 (11718748_at) / RFU TMPRSS4 (11747572_a_at) / Fold change /veh TMPRSS4 (11747572_a_at) / RFU HAMP (11756126_x_at) / Fold change /veh HAMP (11756126_x_at) / RFU RNFT2 (11725882_a_at) / Fold change /veh RNFT2 (11725882_a_at) / RFU NR4A2 (11747474_a_at) / Fold change /veh NR4A2 (11747474_a_at) / RFU ABCC12 (11746883_a_at) / Fold change /veh ABCC12 (11746883_a_at) / RFU TMEM136 (11760407_x_at) / Fold change /veh TMEM136 (11760407_x_at) / RFU CLDN22 /// WWC2 (11732394_at) / Fold change /veh CLDN22 /// WWC2 (11732394_at) / RFU HLA-DPB1 (11760878_x_at) / Fold change /veh HLA-DPB1 (11760878_x_at) / RFU SPINT1 (11716480_a_at) / Fold change /veh SPINT1 (11716480_a_at) / RFU GAP43 (11754022_s_at) / Fold change /veh GAP43 (11754022_s_at) / RFU A4GNT (11735810_at) / Fold change /veh A4GNT (11735810_at) / RFU PRB3 (11715151_x_at) / Fold change /veh PRB3 (11715151_x_at) / RFU TUBB4B (11761932_at) / Fold change /veh TUBB4B (11761932_at) / RFU CAPN14 (11732068_a_at) / Fold change /veh CAPN14 (11732068_a_at) / RFU TMCC2 (11721928_a_at) / Fold change /veh TMCC2 (11721928_a_at) / RFU IRGQ (11745062_a_at) / Fold change /veh IRGQ (11745062_a_at) / RFU FAM174B (11720279_a_at) / Fold change /veh FAM174B (11720279_a_at) / RFU TMPRSS4 (11748680_a_at) / Fold change /veh TMPRSS4 (11748680_a_at) / RFU FAM212B (11763350_a_at) / Fold change /veh FAM212B (11763350_a_at) / RFU PLEKHG5 (11743358_a_at) / Fold change /veh PLEKHG5 (11743358_a_at) / RFU ZSCAN30 (11745921_a_at) / Fold change /veh ZSCAN30 (11745921_a_at) / RFU CMKLR1 (11741424_a_at) / Fold change /veh CMKLR1 (11741424_a_at) / RFU LOC101060620 /// MAPK8IP1 (11723275_at) / Fold change /veh LOC101060620 /// MAPK8IP1 (11723275_at) / RFU SPTSSB (11747773_x_at) / Fold change /veh SPTSSB (11747773_x_at) / RFU PRSS12 (11739890_at) / Fold change /veh PRSS12 (11739890_at) / RFU BIN1 (11741810_x_at) / Fold change /veh BIN1 (11741810_x_at) / RFU WNT11 (11732464_a_at) / Fold change /veh WNT11 (11732464_a_at) / RFU C10orf10 (11716521_a_at) / Fold change /veh C10orf10 (11716521_a_at) / RFU C5orf56 (11738089_at) / Fold change /veh C5orf56 (11738089_at) / RFU CYB561 (11721691_x_at) / Fold change /veh CYB561 (11721691_x_at) / RFU ANKRD19P (11752326_a_at) / Fold change /veh ANKRD19P (11752326_a_at) / RFU OR2T12 /// OR2T33 /// OR2T8 (11738714_s_at) / Fold change /veh OR2T12 /// OR2T33 /// OR2T8 (11738714_s_at) / RFU VCAN (11748164_a_at) / Fold change /veh VCAN (11748164_a_at) / RFU JSRP1 (11732532_at) / Fold change /veh JSRP1 (11732532_at) / RFU KRTAP10-11 (11738290_x_at) / Fold change /veh KRTAP10-11 (11738290_x_at) / RFU MYO3A (11730013_a_at) / Fold change /veh MYO3A (11730013_a_at) / RFU EBF3 (11725865_a_at) / Fold change /veh EBF3 (11725865_a_at) / RFU CAMK2N1 (11719241_x_at) / Fold change /veh CAMK2N1 (11719241_x_at) / RFU C5orf56 (11738088_a_at) / Fold change /veh C5orf56 (11738088_a_at) / RFU OLFML3 (11715873_a_at) / Fold change /veh OLFML3 (11715873_a_at) / RFU LOC100653217 /// NTM (11731650_a_at) / Fold change /veh LOC100653217 /// NTM (11731650_a_at) / RFU MAPK11 (11762145_a_at) / Fold change /veh MAPK11 (11762145_a_at) / RFU FIZ1 (11724087_x_at) / Fold change /veh FIZ1 (11724087_x_at) / RFU OASL (11726364_x_at) / Fold change /veh OASL (11726364_x_at) / RFU SOX15 (11748057_x_at) / Fold change /veh SOX15 (11748057_x_at) / RFU CD79A (11719716_a_at) / Fold change /veh CD79A (11719716_a_at) / RFU HIST1H1D (11736915_at) / Fold change /veh HIST1H1D (11736915_at) / RFU CASKIN2 (11723855_a_at) / Fold change /veh CASKIN2 (11723855_a_at) / RFU LOC730098 (11760151_x_at) / Fold change /veh LOC730098 (11760151_x_at) / RFU OR4N2 (11742367_at) / Fold change /veh OR4N2 (11742367_at) / RFU PRRT2 (11749266_a_at) / Fold change /veh PRRT2 (11749266_a_at) / RFU SNX32 (11753110_a_at) / Fold change /veh SNX32 (11753110_a_at) / RFU CDHR5 (11726645_a_at) / Fold change /veh CDHR5 (11726645_a_at) / RFU RCAN1 (11760418_a_at) / Fold change /veh RCAN1 (11760418_a_at) / RFU FAM167A (11723789_a_at) / Fold change /veh FAM167A (11723789_a_at) / RFU FAM26E (11764081_at) / Fold change /veh FAM26E (11764081_at) / RFU ISYNA1 (11749810_s_at) / Fold change /veh ISYNA1 (11749810_s_at) / RFU ACY1 (11761880_at) / Fold change /veh ACY1 (11761880_at) / RFU 11764098_at / Fold change /veh 11764098_at / RFU SAMD14 (11745864_x_at) / Fold change /veh SAMD14 (11745864_x_at) / RFU NPB (11741838_a_at) / Fold change /veh NPB (11741838_a_at) / RFU TMPRSS6 (11731388_a_at) / Fold change /veh TMPRSS6 (11731388_a_at) / RFU KRTAP10-2 (11738614_at) / Fold change /veh KRTAP10-2 (11738614_at) / RFU ARHGAP8 /// PRR5-ARHGAP8 (11727945_x_at) / Fold change /veh ARHGAP8 /// PRR5-ARHGAP8 (11727945_x_at) / RFU KRTAP5-7 /// NADSYN1 (11734609_at) / Fold change /veh KRTAP5-7 /// NADSYN1 (11734609_at) / RFU RASL12 (11751679_a_at) / Fold change /veh RASL12 (11751679_a_at) / RFU CDKN2B (11736163_a_at) / Fold change /veh CDKN2B (11736163_a_at) / RFU PRF1 (11729649_at) / Fold change /veh PRF1 (11729649_at) / RFU, ZNF638 /// ZNF638-IT1 / Fold change vs veh, ZNF638 /// ZNF638-IT1 / RFU, PANK3 / Fold change vs veh, PANK3 / RFU, SH3YL1 / Fold change vs veh, SH3YL1 / RFU, ZEB2 / Fold change vs veh, ZEB2 / RFU, NRIP1 / Fold change vs veh, NRIP1 / RFU, PTTG1IP / Fold change vs veh, PTTG1IP / RFU, CAPN2 / Fold change vs veh, CAPN2 / RFU, MED14 / Fold change vs veh, MED14 / RFU, SNORA58 / Fold change vs veh, SNORA58 / RFU, C1orf63 / Fold change vs veh, C1orf63 / RFU, LRRFIP1 / Fold change vs veh, LRRFIP1 / RFU, NDUFAF7 / Fold change vs veh, NDUFAF7 / RFU, SLC12A2 / Fold change vs veh, SLC12A2 / RFU, IBTK / Fold change vs veh, IBTK / RFU, ESF1 / Fold change vs veh, ESF1 / Fold change vs veh, TMEM50B / RFU, TAOK1 / Fold change vs veh, TAOK1 / RFU, ACBD3 / Fold change vs veh, ACBD3 / RFU, TMA16 / Fold change vs veh, TMA16 / RFU, RWDD3 / Fold change vs veh, RWDD3 / RFU, BCAT1 / Fold change vs veh, BCAT1 / RFU, EDEM3 / Fold change vs veh, EDEM3 / RFU, TMEM33 / Fold change vs veh, TMEM33 / RFU, WDR75 / Fold change vs veh, WDR75 / RFU, AHCTF1 / Fold change vs veh, AHCTF1 / RFU, TFRC / Fold change vs veh, TFRC / RFU, ZDHHC17 / Fold change vs veh, ZDHHC17 / RFU, NOM1 / Fold change vs veh, NOM1 / RFU, ARL8B / Fold change vs veh, ARL8B / RFU, ZBTB11 / Fold change vs veh, ZBTB11 / RFU, TAMM41 / Fold change vs veh, TAMM41 / RFU, KIAA1704 /// LOC100996395 / Fold change vs veh, KIAA1704 /// LOC100996395 / RFU, ING1 / Fold change vs veh, ING1 / RFU, TRMT61B / Fold change vs veh, TRMT61B / RFU, FUBP3 / Fold change vs veh, FUBP3 / RFU, TP53 / Fold change vs veh, TP53 / RFU, TNKS2 / Fold change vs veh, TNKS2 / RFU, ZFP14 / Fold change vs veh, ZFP14 / RFU, ACTR2 / Fold change vs veh, ACTR2 / RFU, PPP3R1 / Fold change vs veh, PPP3R1 / RFU, PIK3R1 / Fold change vs veh, PIK3R1 / RFU, HNRNPA1 / Fold change vs veh, HNRNPA1 / RFU, RNF170 / Fold change vs veh, RNF170 / RFU, ZNF28 / Fold change vs veh, ZNF28 / RFU, RNGTT / Fold change vs veh, RNGTT / RFU, OGT / Fold change vs veh, OGT / RFU, BRD1 / Fold change vs veh, BRD1 / RFU, MARS / Fold change vs veh, MARS / RFU, ZNF655 / Fold change vs veh, ZNF655 / RFU, FAHD1 / Fold change vs veh, FAHD1 / RFU, BDP1 / Fold change vs veh, BDP1 / RFU, LRRCC1 / Fold change vs veh, LRRCC1 / RFU, ARID1A / Fold change vs veh, ARID1A / RFU, ZNF146 / Fold change vs veh, ZNF146 / RFU, ZNF330 / Fold change vs veh, ZNF330 / RFU, GPN3 / Fold change vs veh, GPN3 / RFU, C9orf123 / Fold change vs veh, C9orf123 / RFU, N4BP2L2 / Fold change vs veh, N4BP2L2 / RFU, ARFIP1 / Fold change vs veh, ARFIP1 / RFU, FAM179B / Fold change vs veh, FAM179B / RFU, BCL10 / Fold change vs veh, BCL10 / RFU, UHRF1BP1L / Fold change vs veh, UHRF1BP1L / RFU, BET1 / Fold change vs veh, BET1 / RFU, CNOT2 / Fold change vs veh, CNOT2 / RFU, ZNF268 / Fold change vs veh, ZNF268 / Fold change vs veh, ZNF507 / RFU, DGCR2 / Fold change vs veh, DGCR2 / RFU, WDSUB1 / Fold change vs veh, WDSUB1 / Fold change vs veh, HSP90B1 /// MIR3652 / RFU, ADSS / Fold change vs veh, ADSS / RFU, GK / Fold change vs veh, GK / RFU, ZNF148 / Fold change vs veh, ZNF148 / RFU, TAF9 / Fold change vs veh, TAF9 / RFU, SLC1A5 / Fold change vs veh, SLC1A5 / RFU, SLMO2 / Fold change vs veh, SLMO2 / RFU, ABCC4 / Fold change vs veh, ABCC4 / RFU, LOC101060439 /// RAP1B / Fold change vs veh, LOC101060439 /// RAP1B / RFU, RFX7 / Fold change vs veh, RFX7 / RFU, GTPBP10 / Fold change vs veh, GTPBP10 / RFU, CNEP1R1 / Fold change vs veh, CNEP1R1 / RFU, BIVM-ERCC5 /// ERCC5 / Fold change vs veh, BIVM-ERCC5 /// ERCC5 / RFU, ILF3 / Fold change vs veh, ILF3 / RFU 11762660_at / Fold change /veh 11762660_at / RFU VCAN (11757783_s_at) / Fold change /veh VCAN (11757783_s_at) / RFU DDX43 (11728927_at) / Fold change /veh DDX43 (11728927_at) / RFU KRT8 (11758188_x_at) / Fold change /veh KRT8 (11758188_x_at) / RFU NKD1 (11759106_at) / Fold change /veh NKD1 (11759106_at) / RFU SRD5A1 (11742802_a_at) / Fold change /veh SRD5A1 (11742802_a_at) / RFU TPSAB1 /// TPSB2 (11721975_s_at) / Fold change /veh TPSAB1 /// TPSB2 (11721975_s_at) / RFU GSTM3 (11746129_a_at) / Fold change /veh GSTM3 (11746129_a_at) / RFU IL23R (11737362_x_at) / Fold change /veh IL23R (11737362_x_at) / RFU TMEM51 (11727254_a_at) / Fold change /veh TMEM51 (11727254_a_at) / RFU PIWIL2 (11732686_x_at) / Fold change /veh PIWIL2 (11732686_x_at) / RFU ORM1 (11744905_x_at) / Fold change /veh ORM1 (11744905_x_at) / RFU CCDC152 (11743942_at) / Fold change /veh CCDC152 (11743942_at) / RFU ECM1 (11717891_a_at) / Fold change /veh ECM1 (11717891_a_at) / RFU IL23R (11748794_a_at) / Fold change /veh IL23R (11748794_a_at) / RFU TNFAIP8L3 (11732012_x_at) / Fold change /veh TNFAIP8L3 (11732012_x_at) / RFU MBOAT4 (11741988_at) / Fold change /veh MBOAT4 (11741988_at) / RFU 11764193_at / Fold change /veh 11764193_at / RFU TMEM53 (11763286_at) / Fold change /veh TMEM53 (11763286_at) / RFU MAGEB2 (11727129_at) / Fold change /veh MAGEB2 (11727129_at) / RFU TMEM200A (11744735_a_at) / Fold change /veh TMEM200A (11744735_a_at) / RFU CCDC152 (11751479_a_at) / Fold change /veh CCDC152 (11751479_a_at) / RFU FAM211A (11726209_a_at) / Fold change /veh FAM211A (11726209_a_at) / RFU RGS16 (11746705_a_at) / Fold change /veh RGS16 (11746705_a_at) / RFU VCAN (11755009_s_at) / Fold change /veh VCAN (11755009_s_at) / RFU RHOB (11743442_s_at) / Fold change /veh RHOB (11743442_s_at) / RFU RGS16 (11720943_a_at) / Fold change /veh RGS16 (11720943_a_at) / RFU RGS16 (11720944_at) / Fold change /veh RGS16 (11720944_at) / RFU, VPS4B / Fold change vs veh, VPS4B / RFU, CREB1 / Fold change vs veh, CREB1 / RFU, DNAJC13 / Fold change vs veh, DNAJC13 / RFU, GNAQ / Fold change vs veh, GNAQ / RFU, CDK5R1 / Fold change vs veh, CDK5R1 / RFU, ZRANB3 / Fold change vs veh, ZRANB3 / RFU, CUL4A / Fold change vs veh, CUL4A / RFU, CCNY / Fold change vs veh, CCNY / RFU, UFL1 / Fold change vs veh, UFL1 / RFU, COG3 / Fold change vs veh, COG3 / RFU, DIAPH2 / Fold change vs veh, DIAPH2 / RFU, SKA2 / Fold change vs veh, SKA2 / RFU, AFF3 / Fold change vs veh, AFF3 / RFU, LMF1 / Fold change vs veh, LMF1 / RFU, IPO11 / Fold change vs veh, IPO11 / RFU, DFFB / Fold change vs veh, DFFB / RFU, FOXP1 / Fold change vs veh, FOXP1 / RFU, CARD8 / Fold change vs veh, CARD8 / RFU, STRN3 / Fold change vs veh, STRN3 / RFU, ADK / Fold change vs veh, ADK / RFU, RASSF2 / Fold change vs veh, RASSF2 / RFU, WIPF1 / Fold change vs veh, WIPF1 / RFU, LARP1B / Fold change vs veh, LARP1B / RFU, RASA1 / Fold change vs veh, RASA1 / RFU, RB1 / Fold change vs veh, RB1 / RFU, PPFIA1 / Fold change vs veh, PPFIA1 / RFU, MAT2A / Fold change vs veh, MAT2A / RFU, CCT5 / Fold change vs veh, CCT5 / RFU, WDR92 / Fold change vs veh, WDR92 / RFU, CUX1 / Fold change vs veh, CUX1 / RFU, TTC7A / Fold change vs veh, TTC7A / RFU, TMEM135 / Fold change vs veh, TMEM135 / RFU, DEPTOR / Fold change vs veh, DEPTOR / RFU, CPM / Fold change vs veh, CPM / RFU, DNAJB6 / Fold change vs veh, DNAJB6 / RFU, CACNA2D3 / Fold change vs veh, CACNA2D3 / RFU, DTX4 / Fold change vs veh, DTX4 / RFU, TFCP2 / Fold change vs veh, TFCP2 / RFU, GMCL1 /// GMCL1P1 / Fold change vs veh, GMCL1 /// GMCL1P1 / RFU, AEBP2 / Fold change vs veh, AEBP2 / RFU, SNHG1 /// SNORD22 /// SNORD25 /// SNORD26 /// SNORD27 /// SNORD28 /// SNORD29 /// SNORD31 / Fold change vs veh, SNHG1 /// SNORD22 /// SNORD25 /// SNORD26 /// SNORD27 /// SNORD28 /// SNORD29 /// SNORD31 / Fold change (Aza/veh), C12orf56 (ProbeSet 11735607_a_at) / Fold change (ACY-1035/veh), C12orf56 (ProbeSet 11735607_a_at) / Fold change (Aza/veh), FGFR1OP (ProbeSet 11751329_s_at) / Fold change (ACY-1035/veh), FGFR1OP (ProbeSet 11751329_s_at) / Fold change (Aza/veh), VPS36 (ProbeSet 11739960_a_at) / Fold change (ACY-1035/veh), VPS36 (ProbeSet 11739960_a_at) / RFU SYPL1 (11715823_x_at) / Fold change /veh SYPL1 (11715823_x_at) / RFU IGFBP7 (11715501_s_at) / Fold change /veh IGFBP7 (11715501_s_at) / RFU REEP3 (11722064_at) / Fold change /veh REEP3 (11722064_at) / RFU IGLL1 (11728026_x_at) / Fold change /veh IGLL1 (11728026_x_at): dose or concentration left out as unconfirmed
Settings: MV-4-11 cells, 48 hours

## Nc1ncn([C@@H]2O[C@H](CO)[C@@H](O)[C@H]2O)c(=O)n1 [azacitidine]
  RFU GSTM3 (11746129_a_at): 15.07 RFU
